The assay deals with T1, FKBP12 (Homo sapiens, UniProt P62942).
T1 construct: His-tag (HRV 3C cleavable) (cleaved yes); made in house; host or cells: Escherichia coli BL21(DE3)
As to the kind of experiment: Competition fluorescence polarization assay with FITC-rapamycin tracer. The class given is binding. A general note: Fluorescence polarisation rises when a labelled molecule tumbles more slowly, as on binding a larger partner.

Where [1] appears, read: recombinant FKBP12, Extended Data Fig. 2, read-out: Kd (FKBP12).

Data on 4 compounds can be found in paper PMC9492542, “Brain-restricted mTOR inhibition with binary pharmacology” (Nature, 2022).

Each structure is given as a SMILES string. Where two headings read alike, the source gives them in different places.

T1 sequence (P62942 whole entry): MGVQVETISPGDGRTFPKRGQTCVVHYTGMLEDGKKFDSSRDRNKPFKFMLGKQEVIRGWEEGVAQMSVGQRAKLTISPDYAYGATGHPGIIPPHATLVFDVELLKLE
Method: Compound binding affinity was determined using a competition fluorescence polarization assay. […] The assay buffer was 20 mM HEPES pH 7.5 and 0.01% Triton X-100. […] Data were fitted to a three-parameter sigmoidal curve to derive IC50 values. Ki of the compounds were calculated using a tool provided by S. Wang’s laboratory (http://www.umich.edu/~shaomengwanglab/software/calc_ki/index.html). Data were plotted in GraphPad Prism 9.0.

For `CO[C@H]1C[C@@H](C)C/C(C)=C/[C@@H](C/C=C/c2cccc[n+]2[O-])C(=O)C[C@H](O)[C@@H](C)[C@@H](/C(C)=C/[C@@H]2CC[C@@H](O)[C@H](OC)C2)OC(=O)[C@@H]2CCCCN2C(=O)C(=O)[C@]2(O)O[C@H]1[C@@H](OC)C[C@H]2C` [Compound 05-060], under setting [1], the Kd came out at 0.6 nM.
As for `CO[C@H]1C[C@@H](C)C/C(C)=C/[C@@H](C/C=C/c2cc[n+]([O-])cc2)C(=O)C[C@H](O)[C@@H](C)[C@@H](/C(C)=C/[C@@H]2CC[C@@H](O)[C@H](OC)C2)OC(=O)[C@@H]2CCCCN2C(=O)C(=O)[C@]2(O)O[C@H]1[C@@H](OC)C[C@H]2C` [Compound 05-061], under setting [1], the Kd stood at 0.2 nM.
`CO[C@H]1C[C@@H](C)C/C(C)=C/[C@@H](CCCC(=O)Nc2ccccn2)C(=O)C[C@H](O)[C@@H](C)[C@@H](/C(C)=C/[C@@H]2CC[C@@H](O)[C@H](OC)C2)OC(=O)[C@@H]2CCCCN2C(=O)C(=O)[C@]2(O)O[C@H]1[C@@H](OC)C[C@H]2C` [Compound 05-064] gave a Kd of 0.2 nM.
Still for that read-out and setting: under `CO[C@H]1C[C@@H](C)C/C(C)=C/[C@@H](CCCc2ccncc2)C(=O)C[C@H](O)[C@@H](C)[C@@H](/C(C)=C/[C@@H]2CC[C@@H](O)[C@H](OC)C2)OC(=O)[C@@H]2CCCCN2C(=O)C(=O)[C@]2(O)O[C@H]1[C@@H](OC)C[C@H]2C` [Compound 05-085] stands 1.5 nM.

In general, Kd refers to the free concentration of one partner at which half of the binding sites on the other are occupied at equilibrium, for simple one-to-one binding.
